Source: article PMC7385619, “A triple action CDK4/6-PI3K-BET inhibitor with augmented cancer cell cytotoxicity” (Cell Discovery, 2020)

Assays:
CDK4 = CDK4 (Homo sapiens, UniProt P11802); test: In vitro kinase assay, CDK4; assay type: biochemical; conditions: Fig. 1b; italicized values from the literature (italics not visible)
[1] = Cell viability (cytotoxicity) assay, normal tonsillar epithelial cells; assay type: cell-based; conditions: human, normal tonsillar epithelial cells (RRP008), surrogate for toxicity of normal tissue, read-out: Half maximal inhibitory concentration (IC50) in cell line cytotoxicity assays, Tonsillar Epithelia
kinome (kinase panel) [2] = target: T1, kinome (kinase panel) (Homo sapiens, UniProt Q13546); test: KINOMEscan assay (Eurofins DiscoverX); assay type: binding; conditions: RIPK1; 1000 nM; read-out: Percent Control
T1 construct: purchased Eurofins DiscoverX

kinome (kinase panel) [3] = target: T2, kinome (kinase panel) (Homo sapiens, UniProt P36888, R834Q); test: KINOMEscan assay (Eurofins DiscoverX); assay type: binding; conditions: […]; 1000 nM; read-out: Percent Control
T2 construct: purchased Eurofins DiscoverX

kinome (kinase panel) [4] = target: T3, kinome (kinase panel) (Homo sapiens, UniProt O14578); test: KINOMEscan assay (Eurofins DiscoverX); assay type: binding; conditions: CIT; 1000 nM; read-out: Percent Control
T3 construct: purchased Eurofins DiscoverX

kinome (kinase panel) [5] = target: T4, kinome (kinase panel) (Homo sapiens, UniProt P21709); test: KINOMEscan assay (Eurofins DiscoverX); assay type: binding; conditions: EPHA1; 1000 nM; read-out: Percent Control
T4 construct: purchased Eurofins DiscoverX

kinome (kinase panel) [6] = target: T5, kinome (kinase panel) (Homo sapiens, UniProt P53355); test: KINOMEscan assay (Eurofins DiscoverX); assay type: binding; conditions: DAPK1; 1000 nM; read-out: Percent Control
T5 construct: purchased Eurofins DiscoverX

kinome (kinase panel) [7] = target: T6, kinome (kinase panel) (Homo sapiens, UniProt Q05655); test: KINOMEscan assay (Eurofins DiscoverX); assay type: binding; conditions: PRKCD; 1000 nM; read-out: Percent Control
T6 construct: purchased Eurofins DiscoverX

kinome (kinase panel) [8] = target: T7, kinome (kinase panel) (Homo sapiens, UniProt Q13882); test: KINOMEscan assay (Eurofins DiscoverX); assay type: binding; conditions: BRK (Entrez PTK6); 1000 nM; read-out: Percent Control
T7 construct: purchased Eurofins DiscoverX

kinome (kinase panel) [9] = target: T8, kinome (kinase panel) (Homo sapiens, UniProt P10721, V559D); test: KINOMEscan assay (Eurofins DiscoverX); assay type: binding; conditions: […]; 1000 nM; read-out: Percent Control
T8 construct: purchased Eurofins DiscoverX

kinome (kinase panel) [10] = target: T9, kinome (kinase panel) (Homo sapiens, UniProt Q5S007); test: KINOMEscan assay (Eurofins DiscoverX); assay type: binding; conditions: LRRK2; 1000 nM; read-out: Percent Control
T9 construct: purchased Eurofins DiscoverX

kinome (kinase panel) [11] = target: T10, kinome (kinase panel) (Homo sapiens, UniProt P80192); test: KINOMEscan assay (Eurofins DiscoverX); assay type: binding; conditions: MLK1 (Entrez MAP3K9); 1000 nM; read-out: Percent Control
T10 construct: purchased Eurofins DiscoverX

kinome (kinase panel) [12] = target: T11, kinome (kinase panel) (Homo sapiens, UniProt Q9Y2H1); test: KINOMEscan assay (Eurofins DiscoverX); assay type: binding; conditions: NDR2 (Entrez STK38L); 1000 nM; read-out: Percent Control
T11 construct: purchased Eurofins DiscoverX

kinome (kinase panel) [13] = target: T12, kinome (kinase panel) (Homo sapiens, UniProt Q8TD08); test: KINOMEscan assay (Eurofins DiscoverX); assay type: binding; conditions: ERK8 (Entrez MAPK15); 1000 nM; read-out: Percent Control
T12 construct: purchased Eurofins DiscoverX

kinome (kinase panel) [14] = target: T13, kinome (kinase panel) (Homo sapiens, UniProt Q9UIK4); test: KINOMEscan assay (Eurofins DiscoverX); assay type: binding; conditions: DAPK2; 1000 nM; read-out: Percent Control
T13 construct: purchased Eurofins DiscoverX

kinome (kinase panel) [15] = target: T14, kinome (kinase panel) (Homo sapiens, UniProt O75747); test: KINOMEscan assay (Eurofins DiscoverX); assay type: binding; conditions: PIK3C2G; 1000 nM; read-out: Percent Control
T14 construct: purchased Eurofins DiscoverX

kinome (kinase panel) [16] = target: T15, kinome (kinase panel) (Homo sapiens, UniProt Q9UKE5); test: KINOMEscan assay (Eurofins DiscoverX); assay type: binding; conditions: TNIK; 1000 nM; read-out: Percent Control
T15 construct: purchased Eurofins DiscoverX

kinome (kinase panel) [17] = target: T16, kinome (kinase panel) (Homo sapiens, UniProt P00519, F317I); test: KINOMEscan assay (Eurofins DiscoverX); assay type: binding
T16 construct: purchased Eurofins DiscoverX

kinome (kinase panel) [18] = target: T17, kinome (kinase panel) (Homo sapiens, UniProt Q9H2G2); test: KINOMEscan assay (Eurofins DiscoverX); assay type: binding; conditions: SLK; 1000 nM; read-out: Percent Control
T17 construct: purchased Eurofins DiscoverX

kinome (kinase panel) [19] = target: T18, kinome (kinase panel) (Homo sapiens, UniProt Q15835); test: KINOMEscan assay (Eurofins DiscoverX); assay type: binding; conditions: GRK1; 1000 nM; read-out: Percent Control
T18 construct: purchased Eurofins DiscoverX

kinome (kinase panel) [20] = target: T19, kinome (kinase panel) (Homo sapiens, UniProt P29323); test: KINOMEscan assay (Eurofins DiscoverX); assay type: binding; conditions: EPHB2; 1000 nM; read-out: Percent Control
T19 construct: purchased Eurofins DiscoverX

kinome (kinase panel) [21] = target: T20, kinome (kinase panel) (Homo sapiens, UniProt P27448); test: KINOMEscan assay (Eurofins DiscoverX); assay type: binding; conditions: MARK3; 1000 nM; read-out: Percent Control
T20 construct: purchased Eurofins DiscoverX

kinome (kinase panel) [22] = target: T21, kinome (kinase panel) (Homo sapiens, UniProt P17612); test: KINOMEscan assay (Eurofins DiscoverX); assay type: binding; conditions: PKAC-alpha (Entrez PRKACA); 1000 nM; read-out: Percent Control
T21 construct: purchased Eurofins DiscoverX

kinome (kinase panel) [23] = target: T22, kinome (kinase panel) (Homo sapiens, UniProt P08069); test: KINOMEscan assay (Eurofins DiscoverX); assay type: binding; conditions: IGF1R; 1000 nM; read-out: Percent Control
T22 construct: purchased Eurofins DiscoverX

kinome (kinase panel) [24] = target: T23, kinome (kinase panel) (Homo sapiens, UniProt P06241); test: KINOMEscan assay (Eurofins DiscoverX); assay type: binding; conditions: FYN; 1000 nM; read-out: Percent Control
T23 construct: purchased Eurofins DiscoverX

kinome (kinase panel) [25] = target: T24, kinome (kinase panel) (Homo sapiens, UniProt Q96SB4); test: KINOMEscan assay (Eurofins DiscoverX); assay type: binding; conditions: SRPK1; 1000 nM; read-out: Percent Control
T24 construct: purchased Eurofins DiscoverX

kinome (kinase panel) [26] = target: T25, kinome (kinase panel) (Homo sapiens, UniProt Q92918); test: KINOMEscan assay (Eurofins DiscoverX); assay type: binding; conditions: HPK1 (Entrez MAP4K1); 1000 nM; read-out: Percent Control
T25 construct: purchased Eurofins DiscoverX

kinome (kinase panel) [27] = target: T26, kinome (kinase panel) (Homo sapiens, UniProt Q9H2K8); test: KINOMEscan assay (Eurofins DiscoverX); assay type: binding; conditions: TAOK3; 1000 nM; read-out: Percent Control
T26 construct: purchased Eurofins DiscoverX

kinome (kinase panel) [28] = target: T27, kinome (kinase panel) (Homo sapiens, UniProt Q14012); test: KINOMEscan assay (Eurofins DiscoverX); assay type: binding; conditions: CAMK1; 1000 nM; read-out: Percent Control
T27 construct: purchased Eurofins DiscoverX

T16 sequence (P00519 whole entry F317I): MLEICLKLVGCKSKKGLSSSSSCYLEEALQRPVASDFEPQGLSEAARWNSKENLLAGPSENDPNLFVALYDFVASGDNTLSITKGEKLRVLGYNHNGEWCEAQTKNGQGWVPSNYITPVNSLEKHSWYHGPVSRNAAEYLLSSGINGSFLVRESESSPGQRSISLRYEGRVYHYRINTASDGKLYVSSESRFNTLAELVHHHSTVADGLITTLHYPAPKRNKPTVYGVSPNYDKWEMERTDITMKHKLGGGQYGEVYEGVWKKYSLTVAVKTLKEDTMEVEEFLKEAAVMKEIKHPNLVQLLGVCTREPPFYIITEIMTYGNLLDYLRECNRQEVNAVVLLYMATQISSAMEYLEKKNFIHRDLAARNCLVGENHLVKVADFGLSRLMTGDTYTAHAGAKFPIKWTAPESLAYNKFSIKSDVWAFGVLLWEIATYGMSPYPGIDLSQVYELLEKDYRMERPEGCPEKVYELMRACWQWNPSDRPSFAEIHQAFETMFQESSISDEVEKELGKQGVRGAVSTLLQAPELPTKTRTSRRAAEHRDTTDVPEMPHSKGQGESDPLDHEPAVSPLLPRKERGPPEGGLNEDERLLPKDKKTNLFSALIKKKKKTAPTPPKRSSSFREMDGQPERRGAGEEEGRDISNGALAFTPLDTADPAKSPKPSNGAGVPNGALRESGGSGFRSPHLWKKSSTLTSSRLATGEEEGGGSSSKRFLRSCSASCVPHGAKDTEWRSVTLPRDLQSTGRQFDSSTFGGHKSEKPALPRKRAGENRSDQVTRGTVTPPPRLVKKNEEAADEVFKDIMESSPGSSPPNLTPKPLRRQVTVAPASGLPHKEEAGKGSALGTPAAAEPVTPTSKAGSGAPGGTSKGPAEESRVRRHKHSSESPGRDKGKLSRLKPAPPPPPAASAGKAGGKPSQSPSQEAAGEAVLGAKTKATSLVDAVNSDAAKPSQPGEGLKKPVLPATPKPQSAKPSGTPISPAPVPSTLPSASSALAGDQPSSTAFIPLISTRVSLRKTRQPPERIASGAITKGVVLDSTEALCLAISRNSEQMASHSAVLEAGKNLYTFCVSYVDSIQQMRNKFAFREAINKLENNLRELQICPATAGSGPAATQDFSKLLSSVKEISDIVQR
T25 sequence (Q92918 whole entry): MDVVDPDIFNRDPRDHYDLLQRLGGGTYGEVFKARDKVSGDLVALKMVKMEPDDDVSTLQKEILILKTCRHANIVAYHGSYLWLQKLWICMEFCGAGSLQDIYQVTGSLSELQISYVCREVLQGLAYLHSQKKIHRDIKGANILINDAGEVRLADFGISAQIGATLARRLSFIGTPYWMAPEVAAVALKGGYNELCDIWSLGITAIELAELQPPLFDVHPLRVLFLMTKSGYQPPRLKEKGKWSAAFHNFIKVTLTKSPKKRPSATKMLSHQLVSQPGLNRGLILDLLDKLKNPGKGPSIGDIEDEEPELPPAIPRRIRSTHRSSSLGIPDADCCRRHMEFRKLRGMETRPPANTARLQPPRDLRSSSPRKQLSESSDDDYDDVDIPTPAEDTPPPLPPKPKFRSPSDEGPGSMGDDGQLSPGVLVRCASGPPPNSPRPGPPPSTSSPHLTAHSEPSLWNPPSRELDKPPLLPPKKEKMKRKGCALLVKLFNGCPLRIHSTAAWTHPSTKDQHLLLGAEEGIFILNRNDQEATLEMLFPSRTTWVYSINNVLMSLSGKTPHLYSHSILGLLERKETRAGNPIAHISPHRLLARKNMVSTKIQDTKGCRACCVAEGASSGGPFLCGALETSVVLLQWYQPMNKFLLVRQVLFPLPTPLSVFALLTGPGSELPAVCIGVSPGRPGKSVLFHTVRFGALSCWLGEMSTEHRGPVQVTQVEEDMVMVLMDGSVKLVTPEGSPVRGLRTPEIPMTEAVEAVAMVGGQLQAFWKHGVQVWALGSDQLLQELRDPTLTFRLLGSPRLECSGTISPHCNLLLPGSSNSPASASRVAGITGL
T15 sequence (Q9UKE5 whole entry): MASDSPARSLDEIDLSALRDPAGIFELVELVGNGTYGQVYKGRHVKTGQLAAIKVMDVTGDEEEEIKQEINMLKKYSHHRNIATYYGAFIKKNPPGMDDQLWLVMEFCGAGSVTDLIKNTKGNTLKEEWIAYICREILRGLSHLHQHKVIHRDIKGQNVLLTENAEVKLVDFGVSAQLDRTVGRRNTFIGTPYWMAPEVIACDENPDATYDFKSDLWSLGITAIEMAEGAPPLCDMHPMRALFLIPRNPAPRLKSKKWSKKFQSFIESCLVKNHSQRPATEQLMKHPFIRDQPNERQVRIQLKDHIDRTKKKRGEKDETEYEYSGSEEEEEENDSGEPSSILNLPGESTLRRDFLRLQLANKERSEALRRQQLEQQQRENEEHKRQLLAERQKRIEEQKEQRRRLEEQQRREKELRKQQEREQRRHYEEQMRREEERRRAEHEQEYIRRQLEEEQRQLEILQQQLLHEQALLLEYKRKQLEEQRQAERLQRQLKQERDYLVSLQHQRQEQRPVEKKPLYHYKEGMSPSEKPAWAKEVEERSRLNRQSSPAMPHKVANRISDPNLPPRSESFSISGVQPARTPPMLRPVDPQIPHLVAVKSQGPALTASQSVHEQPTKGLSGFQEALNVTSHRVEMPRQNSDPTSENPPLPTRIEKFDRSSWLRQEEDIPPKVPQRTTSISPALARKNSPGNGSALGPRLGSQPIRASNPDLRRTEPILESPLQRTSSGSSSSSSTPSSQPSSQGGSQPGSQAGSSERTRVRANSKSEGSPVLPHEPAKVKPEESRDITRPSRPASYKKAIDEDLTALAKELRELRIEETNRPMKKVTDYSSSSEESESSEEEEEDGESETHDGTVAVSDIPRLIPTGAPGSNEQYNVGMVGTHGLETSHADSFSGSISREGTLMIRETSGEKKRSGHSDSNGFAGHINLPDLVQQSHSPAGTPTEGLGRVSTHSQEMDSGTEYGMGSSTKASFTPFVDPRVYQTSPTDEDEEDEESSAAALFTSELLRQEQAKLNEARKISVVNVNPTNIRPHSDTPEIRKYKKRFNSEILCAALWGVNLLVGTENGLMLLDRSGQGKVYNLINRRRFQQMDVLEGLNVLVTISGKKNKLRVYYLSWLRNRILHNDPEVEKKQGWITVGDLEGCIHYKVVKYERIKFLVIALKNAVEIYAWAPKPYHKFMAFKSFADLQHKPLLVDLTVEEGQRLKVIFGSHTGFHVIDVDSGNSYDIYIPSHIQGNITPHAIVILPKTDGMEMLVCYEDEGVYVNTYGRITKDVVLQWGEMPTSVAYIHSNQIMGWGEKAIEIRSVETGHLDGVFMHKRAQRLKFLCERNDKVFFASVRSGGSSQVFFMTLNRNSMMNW
T18 sequence (Q15835 whole entry): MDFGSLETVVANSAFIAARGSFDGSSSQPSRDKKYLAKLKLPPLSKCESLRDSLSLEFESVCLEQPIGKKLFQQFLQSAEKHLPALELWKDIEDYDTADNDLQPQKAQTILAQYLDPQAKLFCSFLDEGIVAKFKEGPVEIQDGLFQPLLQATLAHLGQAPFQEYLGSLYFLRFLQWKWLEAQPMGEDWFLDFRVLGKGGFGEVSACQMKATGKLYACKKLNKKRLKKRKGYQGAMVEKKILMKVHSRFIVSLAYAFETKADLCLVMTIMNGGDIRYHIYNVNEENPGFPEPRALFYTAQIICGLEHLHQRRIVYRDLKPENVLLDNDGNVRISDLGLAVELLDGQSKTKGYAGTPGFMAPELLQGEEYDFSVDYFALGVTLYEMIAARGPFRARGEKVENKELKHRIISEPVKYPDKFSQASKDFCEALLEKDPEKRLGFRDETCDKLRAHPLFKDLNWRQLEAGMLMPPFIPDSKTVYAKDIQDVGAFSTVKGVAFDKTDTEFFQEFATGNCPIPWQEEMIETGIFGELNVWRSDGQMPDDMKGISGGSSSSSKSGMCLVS
T23 sequence (P06241 whole entry): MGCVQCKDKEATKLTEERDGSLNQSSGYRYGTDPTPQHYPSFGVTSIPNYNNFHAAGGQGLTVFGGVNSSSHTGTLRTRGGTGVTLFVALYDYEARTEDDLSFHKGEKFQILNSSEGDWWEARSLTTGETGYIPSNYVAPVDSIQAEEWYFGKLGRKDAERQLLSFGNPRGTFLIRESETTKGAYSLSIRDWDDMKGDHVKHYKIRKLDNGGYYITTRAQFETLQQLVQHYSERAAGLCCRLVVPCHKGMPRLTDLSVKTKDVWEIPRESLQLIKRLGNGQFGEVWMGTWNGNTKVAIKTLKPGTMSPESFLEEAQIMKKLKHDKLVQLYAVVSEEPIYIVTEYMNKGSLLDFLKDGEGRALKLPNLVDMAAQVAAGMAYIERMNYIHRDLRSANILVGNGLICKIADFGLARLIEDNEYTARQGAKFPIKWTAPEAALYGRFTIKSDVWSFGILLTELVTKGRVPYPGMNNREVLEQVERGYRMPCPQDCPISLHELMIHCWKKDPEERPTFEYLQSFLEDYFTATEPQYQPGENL
T12 sequence (Q8TD08 whole entry): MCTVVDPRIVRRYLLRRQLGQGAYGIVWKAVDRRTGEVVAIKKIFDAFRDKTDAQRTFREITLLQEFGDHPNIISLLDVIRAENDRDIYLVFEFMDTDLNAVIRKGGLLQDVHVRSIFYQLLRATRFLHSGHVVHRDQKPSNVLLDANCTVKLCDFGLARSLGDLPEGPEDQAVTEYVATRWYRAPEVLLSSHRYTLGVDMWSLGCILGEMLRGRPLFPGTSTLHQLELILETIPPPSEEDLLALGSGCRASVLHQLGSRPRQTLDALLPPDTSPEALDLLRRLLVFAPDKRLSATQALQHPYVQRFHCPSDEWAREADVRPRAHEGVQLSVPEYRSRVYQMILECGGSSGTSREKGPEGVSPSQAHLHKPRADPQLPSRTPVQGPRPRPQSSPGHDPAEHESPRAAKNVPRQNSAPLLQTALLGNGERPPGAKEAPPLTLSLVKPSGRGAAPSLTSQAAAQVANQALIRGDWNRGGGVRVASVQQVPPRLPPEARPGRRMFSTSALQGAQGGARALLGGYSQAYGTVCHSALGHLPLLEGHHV

Work on CN(C)C(=O)c1cc2cnc(Nc3ccc(-c4csc5c(=O)cc(N6CCOCC6)oc45)cc3)nc2n1C1CCCC1 [SRX3177] yielded an IC50 (CDK4) of less than 0.0025 µM, an IC50 at 48 h [1] of 34 µM and a remaining binding at 1 µM (kinome (kinase panel) [2]) of 96%. For the same molecule, the remaining binding at 1 µM (kinome (kinase panel) [3]) was 38%, the remaining binding at 1 µM (kinome (kinase panel) [4]) was 84% and the remaining binding at 1 µM (kinome (kinase panel) [5]) was 79%. It also gave a remaining binding at 1 µM (kinome (kinase panel) [6]) of 100%, a remaining binding at 1 µM (kinome (kinase panel) [7]) of 86% and a remaining binding at 1 µM (kinome (kinase panel) [8]) of 100%. The remaining binding at 1 µM (kinome (kinase panel) [9]) was 49%, the remaining binding at 1 µM (kinome (kinase panel) [10]) was 34% and the remaining binding at 1 µM (kinome (kinase panel) [11]) was 62%. For the same molecule, the remaining binding at 1 µM (kinome (kinase panel) [12]) was 90%, the remaining binding at 1 µM (kinome (kinase panel) [13]) was 81% and the remaining binding at 1 µM (kinome (kinase panel) [14]) was 89%. The remaining binding at 1 µM (kinome (kinase panel) [15]) was 100%, the remaining binding at 1 µM (kinome (kinase panel) [16]) was 95% and the “Percent Control” value (kinome (kinase panel) [17]) was 96. For the same molecule, the remaining binding at 1 µM (kinome (kinase panel) [17]; read-out: Percent Control) was 81%, the remaining binding at 1 µM (kinome (kinase panel) [18]) was 38% and the remaining binding at 1 µM (kinome (kinase panel) [19]) was 79%. The remaining binding at 1 µM (kinome (kinase panel) [20]) was 97%, the remaining binding at 1 µM (kinome (kinase panel) [21]) was 85% and the remaining binding at 1 µM (kinome (kinase panel) [22]) was 96%. It also gave a remaining binding at 1 µM (kinome (kinase panel) [23]) of 100%, a remaining binding at 1 µM (kinome (kinase panel) [24]) of 96% and a remaining binding at 1 µM (kinome (kinase panel) [25]) of 22%. For the same molecule, the remaining binding at 1 µM (kinome (kinase panel) [26]) was 100%, the remaining binding at 1 µM (kinome (kinase panel) [27]) was 2.5% and the remaining binding at 1 µM (kinome (kinase panel) [28]) was 51%.
